# From patent US20060069132A1, “Azolecarboxamide herbicides” (priority 2004, published 2006)
# Tests used:
# barnyardgrass [1] = test: Test B pre-/postemergence herbicide test; assay type: in vivo, Echinochloa crus-galli
# Summary of the method: (§1)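 Test chemicals in a non-phytotoxic solvent mixture with surfactant were applied preemergence to seeded species and postemergence to plants 2-18 cm tall (1- to 4-leaf stage); rice and barnyardgrass were also tested in a flooded paddy at the 2-leaf stage. Visual rating versus controls after 13-15 days in greenhouse, scale 0 (no effect) to 100 (complete control).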
# Surinam grass = test: Test B pre-/postemergence herbicide test; assay type: in vivo, Urochloa decumbens
# Summary of the method: (§2)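 Formulation: non-phytotoxic solvent mix with surfactant. Timing: preemergence on seed and postemergence on 2–18 cm plants, applied concurrently. Readout after 13–15 d greenhouse: visual 0–100 control rating against controls.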
# cocklebur = test: Test B pre-/postemergence herbicide test; assay type: in vivo, Xanthium strumarium
# Summary of the method: as §1
# corn = test: Test B pre-/postemergence herbicide test; assay type: in vivo, Zea mays
# Summary of the method: as §2
# large crabgrass = test: Test B pre-/postemergence herbicide test; assay type: in vivo, Digitaria sanguinalis
# Summary of the method: as §2
# giant foxtail = test: Test B pre-/postemergence herbicide test; assay type: in vivo, Setaria faberi
# Summary of the method: as §2
# lambsquarters = test: Test B pre-/postemergence herbicide test; assay type: in vivo, Chenopodium album
# Summary of the method: as §2
# morningglory = test: Test B pre-/postemergence herbicide test; assay type: in vivo, Ipomoea coccinea
# Summary of the method: as §1
# pigweed = test: Test B pre-/postemergence herbicide test; assay type: in vivo, Amaranthus retroflexus
# Summary of the method: as §2
# blackgrass = test: Test B postemergence herbicide test; assay type: in vivo, Alopecurus myosuroides; conditions: scale 0 (no effect) to 100 (complete control); for Plant response rating, Blackgrass: Postemergence, 500 g ai/ha, visual rating after 13 to 15 days; for Blackgrass plant response rating: postemergence, 125 g ai/ha, visual rating
# Summary of the method: (§3)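 Paddy species grown to the 2-leaf stage under flooding; blackgrass sprayed postemergence at 2–18 cm (1- to 4-leaf stage). Plants kept in a greenhouse for 13 to 15 days, then visually rated against controls on 0 (no effect) to 100 (complete control).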
# wheat = test: Test B postemergence herbicide test; assay type: in vivo, Triticum aestivum; design: key to Wheat plant response rating: 0 = no effect, 100 = complete control; conditions: scale 0 (no effect) to 100 (complete control); for Plant response rating, Wheat: Postemergence, 500 g ai/ha, visual rating after 13 to 15 days; for Wheat plant response rating: postemergence, 125 g ai/ha, visual rating
# Summary of the method: (§4)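 Greenhouse test; postemergence application to plants at 1–4 leaves (2–18 cm); paddy species at 2 leaves; evaluated visually vs controls at 13–15 days; scale 0–100 (100 = complete control).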
# wild oat = test: Test B postemergence herbicide test; assay type: in vivo, Avena fatua; conditions: scale 0 (no effect) to 100 (complete control); for Plant response rating, Oat, Wild: Postemergence, 500 g ai/ha, visual rating after 13 to 15 days; for Oat, Wild plant response rating: postemergence, 125 g ai/ha, visual rating
# Summary of the method: as §4
# rice = test: Test B flooded paddy test; assay type: in vivo, Oryza sativa; conditions: 1000 g ai/ha, visual rating, scale 0 to 100 (0 no effect, 100 complete control), 13 to 15 days
# Summary of the method: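 Scale 0–100: zero equals no visible effect, 100 complete control, judged by eye relative to controls. Timing: 13 to 15 days in greenhouse post-treatment. Growth stage at spraying: two leaves (paddy) or one to four leaves, 2–18 cm (postemergence).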
# [2] = tested on: small flower umbrella sedge; test: Test B flooded paddy test; assay type: in vivo, Cyperus difformis; conditions: 1000 g ai/ha, visual rating, scale 0 to 100 (0 no effect, 100 complete control), 13 to 15 days
# Summary of the method: as §3
# ducksalad = test: Test B flooded paddy test; assay type: in vivo, Heteranthera limosa; conditions: 1000 g ai/ha, visual rating, scale 0 to 100 (0 no effect, 100 complete control), 13 to 15 days
# Summary of the method: as §3
# barnyardgrass [3] = test: Test B flooded paddy test; assay type: in vivo, Echinochloa crus-galli; conditions: 1000 g ai/ha, visual rating, scale 0 to 100 (0 no effect, 100 complete control), 13 to 15 days
# Summary of the method: as §3
# [4] = Postemergence, 500 g ai/ha, visual rating after 13 to 15 days, scale 0 (no effect) to 100 (complete control)
# [5] = Preemergence, 500 g ai/ha, scale 0 to 100
# [6] = postemergence, 125 g ai/ha, visual rating, scale 0 (no effect) to 100 (complete control)
# [7] = preemergence, 125 g ai/ha, 0 to 100 scale, 0 is no effect, 100 is complete control
structure (smiles),measurement,setting,value
CCNC(=O)c1cc(NC(=O)c2cc(C(C)(C)C)nn2CC)ccc1F [Compound 58],"Plant response rating, Barnyardgrass",barnyardgrass [1]; [4],60
same,Barnyardgrass plant response rating,barnyardgrass [1]; [5],100
same,Barnyardgrass plant response rating,barnyardgrass [1]; [6],30
same,"Plant response rating, Barnyardgrass",barnyardgrass [1]; [7],90
same,"Plant response rating, Surinam Grass",Surinam grass; [4],30
same,Surinam Grass plant response rating,Surinam grass; [5],60
same,Surinam Grass plant response rating,Surinam grass; [6],10
same,"Plant response rating, Surinam Grass",Surinam grass; [7],30
same,"Plant response rating, Cocklebur",cocklebur; [4],100
same,Cocklebur plant response rating,cocklebur; [5],100
same,Cocklebur plant response rating,cocklebur; [6],80
same,"Plant response rating, Cocklebur",cocklebur; [7],0
same,"Plant response rating, Corn",corn; [4],20
same,Corn plant response rating,corn; [5],30
same,Corn plant response rating,corn; [6],10
same,"Plant response rating, Corn",corn; [7],20
same,"Plant response rating, Crabgrass, Large",large crabgrass; [4],30
same,"Crabgrass, Large plant response rating",large crabgrass; [5],100
same,"Crabgrass, Large plant response rating",large crabgrass; [6],20
same,"Plant response rating, Crabgrass, Large",large crabgrass; [7],100
same,"Plant response rating, Foxtail, Giant",giant foxtail; [4],20
same,"Foxtail, Giant plant response rating",giant foxtail; [5],100
same,"Foxtail, Giant plant response rating",giant foxtail; [6],20
same,"Plant response rating, Foxtail, Giant",giant foxtail; [7],100
same,"Plant response rating, Lambsquarters",lambsquarters; [4],90
same,Lambsquarters plant response rating,lambsquarters; [5],100
same,Lambsquarters plant response rating,lambsquarters; [6],90
same,"Plant response rating, Lambsquarters",lambsquarters; [7],100
same,"Plant response rating, Morningglory",morningglory; [4],30
same,Morningglory plant response rating,morningglory; [5],30
same,Morningglory plant response rating,morningglory; [6],20
same,"Plant response rating, Pigweed",pigweed; [4],90
same,Pigweed plant response rating,pigweed; [5],100
same,Pigweed plant response rating,pigweed; [6],60
same,"Plant response rating, Pigweed",pigweed; [7],100
same,"Plant response rating, Blackgrass",blackgrass,30
same,Blackgrass plant response rating,blackgrass,10
same,"Plant response rating, Wheat",wheat,20
same,Wheat plant response rating,wheat,0
same,"Plant response rating, Oat, Wild",wild oat,30
same,"Oat, Wild plant response rating",wild oat,20
same,Rice plant response rating,rice,60
same,"Sedge, Umbrella plant response rating",[2],80
same,Ducksalad plant response rating,ducksalad,80
same,Barnyardgrass plant response rating,barnyardgrass [3],80
CCn1nc(C(C)(C)C)cc1C(=O)Nc1cccc2c1CCN(C1CC1)C2=O [Compound 64],"Plant response rating, Barnyardgrass",barnyardgrass [1]; [4],10
same,Barnyardgrass plant response rating,barnyardgrass [1]; [5],90
same,Barnyardgrass plant response rating,barnyardgrass [1]; [6],10
same,"Plant response rating, Barnyardgrass",barnyardgrass [1]; [7],50
same,"Plant response rating, Surinam Grass",Surinam grass; [4],10
same,Surinam Grass plant response rating,Surinam grass; [6],10
same,"Plant response rating, Surinam Grass",Surinam grass; [7],10
same,"Plant response rating, Cocklebur",cocklebur; [4],50
same,Cocklebur plant response rating,cocklebur; [5],0
same,Cocklebur plant response rating,cocklebur; [6],30
same,"Plant response rating, Cocklebur",cocklebur; [7],0
same,"Plant response rating, Corn",corn; [4],20
same,Corn plant response rating,corn; [5],0
same,Corn plant response rating,corn; [6],10
same,"Plant response rating, Corn",corn; [7],0
same,"Plant response rating, Crabgrass, Large",large crabgrass; [4],10
same,"Crabgrass, Large plant response rating",large crabgrass; [5],100
same,"Crabgrass, Large plant response rating",large crabgrass; [6],10
same,"Plant response rating, Crabgrass, Large",large crabgrass; [7],20
same,"Plant response rating, Foxtail, Giant",giant foxtail; [4],10
same,"Foxtail, Giant plant response rating",giant foxtail; [5],100
same,"Foxtail, Giant plant response rating",giant foxtail; [6],10
same,"Plant response rating, Foxtail, Giant",giant foxtail; [7],10
same,"Plant response rating, Lambsquarters",lambsquarters; [4],70
same,Lambsquarters plant response rating,lambsquarters; [6],70
same,"Plant response rating, Lambsquarters",lambsquarters; [7],60
same,"Plant response rating, Morningglory",morningglory; [4],20
same,Morningglory plant response rating,morningglory; [6],0
same,"Plant response rating, Morningglory",morningglory; [7],0
same,"Plant response rating, Pigweed",pigweed; [4],50
same,Pigweed plant response rating,pigweed; [6],20
same,"Plant response rating, Pigweed",pigweed; [7],100
same,"Plant response rating, Blackgrass",blackgrass,10
same,Blackgrass plant response rating,blackgrass,0
same,"Plant response rating, Wheat",wheat,10
same,Wheat plant response rating,wheat,0
same,"Plant response rating, Oat, Wild",wild oat,20
same,"Oat, Wild plant response rating",wild oat,20
same,Rice plant response rating,rice,50
same,"Sedge, Umbrella plant response rating",[2],90
same,Ducksalad plant response rating,ducksalad,90
same,Barnyardgrass plant response rating,barnyardgrass [3],30
CCCN1CCc2c(NC(=O)c3cc(C(C)(C)C)nn3CC)cccc2C1=O [Compound 65],"Plant response rating, Barnyardgrass",barnyardgrass [1]; [4],10
same,Barnyardgrass plant response rating,barnyardgrass [1]; [5],90
same,Barnyardgrass plant response rating,barnyardgrass [1]; [6],10
same,"Plant response rating, Barnyardgrass",barnyardgrass [1]; [7],50
same,"Plant response rating, Surinam Grass",Surinam grass; [4],20
same,Surinam Grass plant response rating,Surinam grass; [6],20
same,"Plant response rating, Surinam Grass",Surinam grass; [7],10
same,"Plant response rating, Cocklebur",cocklebur; [4],80
same,Cocklebur plant response rating,cocklebur; [5],0
same,Cocklebur plant response rating,cocklebur; [6],60
same,"Plant response rating, Cocklebur",cocklebur; [7],0
same,"Plant response rating, Corn",corn; [4],20
same,Corn plant response rating,corn; [5],10
same,Corn plant response rating,corn; [6],20
same,"Plant response rating, Corn",corn; [7],0
same,"Plant response rating, Crabgrass, Large",large crabgrass; [4],20
same,"Crabgrass, Large plant response rating",large crabgrass; [5],80
same,"Crabgrass, Large plant response rating",large crabgrass; [6],10
same,"Plant response rating, Crabgrass, Large",large crabgrass; [7],20
same,"Plant response rating, Foxtail, Giant",giant foxtail; [4],20
same,"Foxtail, Giant plant response rating",giant foxtail; [5],80
same,"Foxtail, Giant plant response rating",giant foxtail; [6],10
same,"Plant response rating, Foxtail, Giant",giant foxtail; [7],20
same,"Plant response rating, Lambsquarters",lambsquarters; [4],70
same,Lambsquarters plant response rating,lambsquarters; [6],70
same,"Plant response rating, Lambsquarters",lambsquarters; [7],80
same,"Plant response rating, Morningglory",morningglory; [4],20
same,Morningglory plant response rating,morningglory; [6],10
same,"Plant response rating, Morningglory",morningglory; [7],0
same,"Plant response rating, Pigweed",pigweed; [4],60
same,Pigweed plant response rating,pigweed; [6],40
same,"Plant response rating, Pigweed",pigweed; [7],90
same,"Plant response rating, Blackgrass",blackgrass,10
same,Blackgrass plant response rating,blackgrass,10
same,"Plant response rating, Wheat",wheat,10
same,Wheat plant response rating,wheat,0
same,"Plant response rating, Oat, Wild",wild oat,20
same,"Oat, Wild plant response rating",wild oat,10
same,Rice plant response rating,rice,50
same,"Sedge, Umbrella plant response rating",[2],90
same,Ducksalad plant response rating,ducksalad,90
same,Barnyardgrass plant response rating,barnyardgrass [3],80
CCCCOC(=O)c1cccc(NC(=O)c2cc(C(C)(C)C)nn2CC)c1 [Compound 86],"Plant response rating, Barnyardgrass",barnyardgrass [1]; [4],80
same,Barnyardgrass plant response rating,barnyardgrass [1]; [5],0
same,Barnyardgrass plant response rating,barnyardgrass [1]; [6],50
same,"Plant response rating, Barnyardgrass",barnyardgrass [1]; [7],0
same,"Plant response rating, Surinam Grass",Surinam grass; [4],100
same,Surinam Grass plant response rating,Surinam grass; [6],70
same,"Plant response rating, Surinam Grass",Surinam grass; [7],0
same,"Plant response rating, Cocklebur",cocklebur; [4],100
same,Cocklebur plant response rating,cocklebur; [5],0
same,Cocklebur plant response rating,cocklebur; [6],20
same,"Plant response rating, Cocklebur",cocklebur; [7],0
same,"Plant response rating, Corn",corn; [4],30
same,Corn plant response rating,corn; [5],0
same,Corn plant response rating,corn; [6],20
same,"Plant response rating, Corn",corn; [7],0
same,"Plant response rating, Crabgrass, Large",large crabgrass; [4],90
same,"Crabgrass, Large plant response rating",large crabgrass; [5],0
same,"Crabgrass, Large plant response rating",large crabgrass; [6],60
same,"Plant response rating, Crabgrass, Large",large crabgrass; [7],0
same,"Plant response rating, Foxtail, Giant",giant foxtail; [4],60
same,"Foxtail, Giant plant response rating",giant foxtail; [5],0
same,"Foxtail, Giant plant response rating",giant foxtail; [6],40
same,"Plant response rating, Foxtail, Giant",giant foxtail; [7],0
same,"Plant response rating, Lambsquarters",lambsquarters; [4],90
same,Lambsquarters plant response rating,lambsquarters; [6],80
same,"Plant response rating, Lambsquarters",lambsquarters; [7],0
same,"Plant response rating, Morningglory",morningglory; [4],100
same,Morningglory plant response rating,morningglory; [6],60
same,"Plant response rating, Morningglory",morningglory; [7],0
same,"Plant response rating, Pigweed",pigweed; [4],100
same,Pigweed plant response rating,pigweed; [6],100
same,"Plant response rating, Pigweed",pigweed; [7],0
same,"Plant response rating, Blackgrass",blackgrass,20
same,Blackgrass plant response rating,blackgrass,10
same,"Plant response rating, Wheat",wheat,40
same,Wheat plant response rating,wheat,30
same,"Plant response rating, Oat, Wild",wild oat,60
same,"Oat, Wild plant response rating",wild oat,30
same,Rice plant response rating,rice,50
same,"Sedge, Umbrella plant response rating",[2],70
same,Ducksalad plant response rating,ducksalad,20
same,Barnyardgrass plant response rating,barnyardgrass [3],30
